Data published in patent US20220175723A1, “METHODS AND COMPOSITIONS RELATING TO INHIBITION OF ALDEHYDE DEHYDROGENASES FOR TREATMENT OF CANCER” (THE PENN STATE RESEARCH FOUNDATION, priority 2019, published 2022).
Where two headings read alike, the source gives them in different places.

Columns and labels:
ALDH2 = target: T1, ALDH2 (Homo sapiens, UniProt P05091); test: ALDH isoform-specific enzyme assay (NADH absorbance 340 nm); assay type: biochemical; conditions: Study 1; read-out: IC50s ALDH2
T1 construct: purchased R & D Systems, Inc, Minneapolis, Minn., USA
T1 sequence (P05091 18-517): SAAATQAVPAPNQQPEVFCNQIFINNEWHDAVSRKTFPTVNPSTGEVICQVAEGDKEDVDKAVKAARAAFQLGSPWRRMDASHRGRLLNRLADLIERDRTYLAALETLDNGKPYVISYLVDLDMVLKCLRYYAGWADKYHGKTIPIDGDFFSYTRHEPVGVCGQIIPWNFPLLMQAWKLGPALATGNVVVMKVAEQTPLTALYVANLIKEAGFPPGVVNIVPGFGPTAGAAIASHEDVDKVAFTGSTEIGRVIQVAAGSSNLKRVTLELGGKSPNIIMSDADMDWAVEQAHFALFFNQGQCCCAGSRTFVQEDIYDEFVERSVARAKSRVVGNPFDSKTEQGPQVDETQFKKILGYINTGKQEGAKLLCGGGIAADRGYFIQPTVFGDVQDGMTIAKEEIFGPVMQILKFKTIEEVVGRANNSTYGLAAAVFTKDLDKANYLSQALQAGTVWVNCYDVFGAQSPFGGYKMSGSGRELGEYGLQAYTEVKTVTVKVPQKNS
Procedure: (§4) ALDH enzyme assays were performed using a kit as described by the kit manufacturer (R & D Systems, Inc, Minneapolis, Minn., USA). Isoform-specific aldehydes were converted to their respective carboxylic acids along with conversion of NAD+ to NADH (absorbance at 340 nm). […] Similarly, 0.5 μg/mL of ALDH2 was used in the reaction with 2 mM of acetaldehyde as the substrate and 0.2 μg/mL of ALDH3A1 was used in the reaction with 1 mM of 4-nitrobenzaldehyde (4-NBA) as the substrate following addition of ALDH inhibitors.
(§5) ALDH1A1, 2 and 3A1 enzyme assays were performed as described by the manufacturer (R & D systems). Isoform-specific aldehydes were converted to their respective carboxylic acids along with the conversion of NAD+ to NADH (absorbance at 340 nm).

ALDH1A1 = target: T2, ALDH1A1 (Homo sapiens, UniProt P00352); test: as above; assay type: biochemical; conditions: Study 1; read-out: IC50s ALDH1A1
T2 construct: purchased R & D Systems, Inc, Minneapolis, Minn., USA
T2 sequence (P00352 1-501): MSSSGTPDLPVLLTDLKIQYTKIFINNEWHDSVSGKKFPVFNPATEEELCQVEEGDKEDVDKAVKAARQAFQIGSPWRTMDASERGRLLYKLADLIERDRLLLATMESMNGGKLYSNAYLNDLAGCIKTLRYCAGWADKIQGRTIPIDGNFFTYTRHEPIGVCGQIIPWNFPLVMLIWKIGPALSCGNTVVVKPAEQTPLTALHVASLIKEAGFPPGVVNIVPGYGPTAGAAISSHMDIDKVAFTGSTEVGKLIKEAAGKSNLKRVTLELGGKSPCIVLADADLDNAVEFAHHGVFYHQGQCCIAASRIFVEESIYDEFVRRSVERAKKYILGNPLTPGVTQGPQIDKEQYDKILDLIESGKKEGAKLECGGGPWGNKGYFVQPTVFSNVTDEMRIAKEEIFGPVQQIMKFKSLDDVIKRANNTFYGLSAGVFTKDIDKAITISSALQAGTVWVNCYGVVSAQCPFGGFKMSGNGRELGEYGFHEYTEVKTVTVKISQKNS
Procedure: as §4, §5

[1] = system: total cellular ALDH activity, UACC 903 cell lysates; test: Total cellular ALDH activity in cell lysates; assay type: biochemical, human; conditions: 1 uM inhibitor, 15 minutes
Description: (§1) The ALDHs reduce ROS, lipid peroxidation and toxic aldehyde accumulation, the latter of which can lead to cell damage and apoptosis as shown in FIG. 6A. Thus, inhibition of total cellular ALDH activity can increase toxic aldehydes, oxidative damage and apoptosis.

[2] = system: total cellular ALDH activity, 1205 Lu cell lysates; test: Total cellular ALDH activity in cell lysates; assay type: biochemical, human; conditions: 1 uM inhibitor, 15 minutes
Description: as §1

HCT116 cells [3] = test: Cell cycle by propidium iodide staining with or without NAC; assay type: cell-based, human
Procedure: (§2) FIGS. 30A-30F. […] ROS levels were measured using DCFDA dye and compared to DMSO control. Malondialdehyde (MDA) levels were measured in colon cancer cell line HCT116 using thiobarbituric acid and compared to DMSO control (FIG. 30C). Cell survival assay was performed by MTS assay (FIG. 30D), apoptosis by Annexin-V/7-AAD (FIG. 30E) and cell cycle by propidium iodide staining in colon cancer cell line HCT116 (FIG. 30F).
(§3) Further, the effect of the addition of NAC on the antiproliferative and apoptotic activity of ALDH inhibitors was also evaluated.

HCT116 cells [4] = test: Apoptosis by Annexin-V/7-AAD with or without NAC; assay type: cell-based, human; parameters: dose or concentration left out as unconfirmed; conditions: vs DMSO or 3a
Procedure: as §2, §3

HCT116 cells [5] = test: Cell survival MTS assay with or without NAC; assay type: cell-based, human
Procedure: as §2, §3

HCT116 and HT29 cells = test: ROS assay (DCFDA), Study 2, with or without NAC; assay type: cell-based, human
Procedure: ROS activity was measured using DCFDA dye^51. […] Cells were incubated with 10 μM of DCFDA for 1 hour, and fluorescence was measured at 485 nm excitation and 510 nm emission. ROS levels in treated cells were compared to DMSO control.

[6] = Toxicity study, 14 days i.p.; assay type: in vivo, Swiss-Webster mice; conditions: 5 mg/kg/day i.p. for 14 days, vs DMSO
Procedure: To determine the toxicity of 3(h-l), compounds were injected i.p. into Swiss-Webster mice once daily for 14 days (Id.). Animals were monitored for changes in body weight, behavior and physical distress compared to DMSO control.

ALDH3A1 = target: T3, ALDH3A1 (Homo sapiens, UniProt P30838); test: ALDH isoform-specific enzyme assay (NADH absorbance 340 nm); assay type: biochemical
T3 construct: purchased R & D Systems, Inc, Minneapolis, Minn., USA
T3 sequence (P30838 1-453): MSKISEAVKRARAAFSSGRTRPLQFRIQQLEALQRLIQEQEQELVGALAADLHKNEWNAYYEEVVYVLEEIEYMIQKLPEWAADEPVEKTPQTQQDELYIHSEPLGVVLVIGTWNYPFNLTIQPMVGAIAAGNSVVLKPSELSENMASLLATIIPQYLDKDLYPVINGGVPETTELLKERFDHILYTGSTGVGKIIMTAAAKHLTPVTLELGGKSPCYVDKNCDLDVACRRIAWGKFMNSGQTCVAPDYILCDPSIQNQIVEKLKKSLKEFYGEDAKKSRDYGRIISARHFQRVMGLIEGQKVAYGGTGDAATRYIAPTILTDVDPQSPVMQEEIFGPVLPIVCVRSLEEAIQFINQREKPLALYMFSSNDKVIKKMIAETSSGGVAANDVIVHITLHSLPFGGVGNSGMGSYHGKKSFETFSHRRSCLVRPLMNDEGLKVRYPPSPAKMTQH
Procedure: as §4, §5

UACC 903 cells = test: Cell viability MTS assay, UACC 903; assay type: cell-based, human; conditions: 100 μM, 72 hours
Procedure: Cell viability assays of UACC 903 cells transfected with siRNA, and melanoma cell lines (UACC 903, 1205 Lu, C8161.CI9, MelJuSo), FF2441 and NHEM cells treated with ALDH inhibitors were performed. For this, 5,000 cells per well were plated in a 96-well plate and incubated overnight at 37° C. in a 5% CO2 atmosphere. For the siRNA knockdown experiment, cells were incubated for another 72 hours. For the ALDH inhibitor experiments, cells were treated with agents at various concentrations and incubated for 72 hours. 20 μL of MTS reagent was then added into each well and formation of tetrazolium was measured by absorbance after 1 hour at 492 nm. IC50 values or % cells for each experimental group were measured in three independent experiments using GraphPad Prism version 7.04 (GraphPad Software, La Jolla, Calif.).
Briefly, 3,000 cells per well were plated in a 96-well plate and incubated overnight at 37° C. in a 5% CO2 atmosphere. […] 20 μL of MTS reagent was then added into each well and formation of tetrazolium was measured by absorbance after 1 hour at 492 nm. IC50 values for each experimental group were measured in 3 independent experiments using GraphPad Prism version 7.04 (GraphPad Software, La Jolla, Calif.).

[7] = Study 1, read-out: IC50s ALDH3A1

Structure (SMILES) | IC50 (ALDH2) [µM] | IC50 (ALDH1A1) [µM] | reduction of total cellular ALDH activity, UACC 903 [1] | reduction of total cellular ALDH activity, 1205 Lu [2] | IC50 (ALDH3A1; [7]) [µM] | further results
Cc1nc2ccccc2n1S(=O)(=O)c1ccc(F)cc1 [CB7] | 144 | 139 |  |  |  | 
CCOC(=O)CSc1nc2c(sc3ccccc32)c(=O)n1CCCN1CCCC1 [CM037] |  |  | significantly reduced | significantly reduced |  | 
Br.N=C(N)SCc1ccc(CN2C(=O)C(=O)c3cc(C(F)(F)F)ccc32)cc1 [Compound 3h, 2-[4-(2,3-Dioxo-5-trifluoromethyl-2,3-dihydroindol-1-ylmethyl)benzyl]isothiourea hydrobromide] |  |  |  |  |  | cell cycle effect (HCT116 cells [3]; HCT116): G2/M arrest; cell cycle effect on addition of NAC (HCT116 cells [3]; HCT116, with NAC): reversed; percentage of cells both Annexin-V and 7-AAD positive (HCT116 cells [4]): significantly higher; increase of cell killing IC50 by addition of NAC (HCT116 cells [5]): 6 fold; ROS levels (HCT116 and HT29 cells; 5 μM, 24 hours, vs DMSO): significantly increased; ROS-inducing activity on addition of NAC (HCT116 and HT29 cells; with N-Acetyl Cysteine (NAC)): abrogated; weight loss [6]: no significant weight loss
CCN(CC)c1ccc(C=O)cc1 [DEAB] |  |  | significantly reduced | significantly reduced | 15.1 | IC50 (ALDH3A1; Study 1, text, read-out: IC50 ALDH3A1): 15.1 µM; reduction of UACC 903 cell survival (UACC 903 cells): 30%
O=C1Nc2ccccc2C1=O [Isatin] | 169 | 15.6 | ineffective | ineffective | 5.05 | 
